Common to all, as to format: in vivo
For one assay, the system named is Laodelphax striatellus. Put plainly: Test for control efficacy against Laodelphax striatellus. As to conditions: alone, 30 days after the agrochemical treatment. From the text:
Test for Control Efficacy Test Against Laodelphax striatellus
Adults of the test insect were released onto rice plants (variety: Kinmaze, 95 days after transplantation) grown in individual 2-L pots (8 females and 5 males per pot). At 11 days after the insect release (when hatched larvae were observed), mixed formulations of compound [1-7] and other agrochemicals and each individual agrochemical (prescribed effective doses) were separately applied. After air-drying and at 10 days after the agrochemical treatment, adults of the test insect were additionally released onto the rice plants (8 females and 5 males per pot). At 30 days after the agrochemical treatment, the number of survivors was measured, and the control value was calculated by equation 6. In addition, the expected value E for the mixed use was calculated by Colby's equation as described in Test Example 1. When the actual control efficacy of combined treatment with two different agrochemicals is greater than the expected value E, the combination can be regarded as having synergistic effect.
Control value (%)=(1−number of survivors/number of survivors in control plot)×100 [Math. 6]
Assuming that the control value for “no grade” is 49%, when the control values of the two different agrochemicals are both 49%, the expected value E calculated by Colby's equation is as follows: E=(49+49)−(49×49/100)=73.99. The control value of 73.99 corresponds to grade C. Therefore, when both the agrochemicals are graded as no grade, the expected value is C.

Assay [1] relates to cucumber anthracnose fungus Colletotrichum orbiculare. Conditions: alone, rating scale of Test Example 1.
Assay [2] relates to rice blast fungus Pyricularia oryzae. Conditions: alone, ten-point scale.
The test system of assay [3] is leaf rust fungus Puccinia recondita. Put plainly: Test for control efficacy against wheat leaf rust. Conditions: alone, scale of 0 to 10. As for the experimental part: Test for Control Efficacy Against Wheat Leaf Rust
The agrochemical formulations diluted to predetermined concentrations were applied to wheat plants at a predetermined amount with a spray gun. After air-drying, the wheat plants were spray-inoculated with a spore suspension of the leaf rust fungus Puccinia recondita (1.0×10^7 spores/mL). After that, the wheat pots were kept in a greenhouse under light conditions at 15° C. and 100% RH to induce the development of the disease. At 7 days after the inoculation, the disease area percentage was indexed on a scale of 0 to 10 to evaluate the control efficacy.

The test system of assay [4] is tomato late blight fungus Phytophthora infestans. As to conditions: alone, rating scale of Test Example 2.
A further assay has as its system Plutella xylostella. Put plainly: Test for control efficacy against Plutella xylostella. Conditions: alone. From the text: Test for Control Efficacy Against Plutella xylostella
Brassica oleracea var. capitata (variety: YR Seitoku) seedlings were planted in a glass greenhouse, and after reaching the 12- to 15-leaf stage, the seedlings were inoculated with 3rd-instar larvae of Plutella xylostella. The number of surviving larvae per three plants before agrochemical treatment was counted. A mixed formulation of compound [1-2] and flubendiamide (prepared according to Formulation Example 5) and each individual agrochemical were separately diluted to predetermined concentrations in water and applied to the Brassica oleracea var. capitata plants. The number of surviving larvae was counted at 2 and 6 days after the application, and the control efficacy was calculated by the equation 5 shown below. In addition, the expected value E was calculated by Colby's equation as described in Test Example 1.
Control efficacy (%)=100−{(Ta×Cb)/(Tb×Ca)}×100 [Math. 5]
Ta=number of survivors after agrochemical treatment in treatment plot
Tb=number of survivors before agrochemical treatment in treatment plot […]
As a result of the test for control efficacy against Plutella xylostella, the control efficacy of the composition composed of compound […] was greater than the expected value E calculated by Colby's equation from the control efficacy of the individual compounds. […]

Molecules are shown by their SMILES. Where two headings read alike, the source gives them in different places.

Turning to `CO/C=C(/C(=O)OC)c1ccccc1Oc1cc(Oc2ccccc2C#N)ncn1` [Azoxystrobin 20SC, azoxystrobin], the Grade result with Laodelphax striatellus (100 ppm) and in the assay on Laodelphax striatellus (500 ppm) was “No grade (less than 50%)” each time. In addition, the Control value in assay [1] (0.3 ppm) was 2.0; in assay [1] (3 ppm) it was 8.0; in assay [2] (0.3 ppm), 1.0; in assay [2] (3 ppm), 10; in assay [3] (0.3 ppm) it was 0.0; in assay [3] (3 ppm) it was 9.0. Further, the Control value in assay [4] (0.3 ppm) is 0.0; in assay [4] (3 ppm), 2.0.
For the molecule `OC(Cc1ccccc1Cl)(Cn1nc[nH]c1=S)C1(Cl)CC1` (stereo not shown) [Prothioconazole 25EC, prothioconazole], the Control value in assay [1] (6.25 ppm) is recorded as 8.0; in assay [1] (25 ppm), 10; in assay [2] (6.25 ppm), 5.0; in assay [2] (25 ppm), 9.0; in assay [3] (6.25 ppm), 0.0; in assay [3] (25 ppm), 5.0. The same molecule gave a Control value in assay [4] (25 ppm) of 0.0.
On to `COC(=O)N(OC)c1ccccc1COc1ccn(-c2ccc(Cl)cc2)n1` [Pyraclostrobin 25EC, pyraclostrobin], for which the Grade result in the assay on Laodelphax striatellus (10 ppm) is on record as “No grade (less than 50%)”; in the assay on Laodelphax striatellus (50 ppm), “A (100%)”; in the assay on Plutella xylostella (10 ppm), “No grade (less than 50%)”; in the assay with Plutella xylostella (50 ppm), “A (100%)”. Also, the Control value is reported as 7.0 in assay [1] (3 ppm), 5.0 in assay [3] (1 ppm), 9.0 in assay [3] (3 ppm) and 4.0 in assay [4] (3 ppm).

Source of the values: patent US20210298299A1 (priority 2018, published 2021).
